For this experiment, the target named is T1, ATPase family AAA domain-containing protein 2 (Homo sapiens, UniProt Q6PL18).
T1 sequence (Q6PL18 whole entry): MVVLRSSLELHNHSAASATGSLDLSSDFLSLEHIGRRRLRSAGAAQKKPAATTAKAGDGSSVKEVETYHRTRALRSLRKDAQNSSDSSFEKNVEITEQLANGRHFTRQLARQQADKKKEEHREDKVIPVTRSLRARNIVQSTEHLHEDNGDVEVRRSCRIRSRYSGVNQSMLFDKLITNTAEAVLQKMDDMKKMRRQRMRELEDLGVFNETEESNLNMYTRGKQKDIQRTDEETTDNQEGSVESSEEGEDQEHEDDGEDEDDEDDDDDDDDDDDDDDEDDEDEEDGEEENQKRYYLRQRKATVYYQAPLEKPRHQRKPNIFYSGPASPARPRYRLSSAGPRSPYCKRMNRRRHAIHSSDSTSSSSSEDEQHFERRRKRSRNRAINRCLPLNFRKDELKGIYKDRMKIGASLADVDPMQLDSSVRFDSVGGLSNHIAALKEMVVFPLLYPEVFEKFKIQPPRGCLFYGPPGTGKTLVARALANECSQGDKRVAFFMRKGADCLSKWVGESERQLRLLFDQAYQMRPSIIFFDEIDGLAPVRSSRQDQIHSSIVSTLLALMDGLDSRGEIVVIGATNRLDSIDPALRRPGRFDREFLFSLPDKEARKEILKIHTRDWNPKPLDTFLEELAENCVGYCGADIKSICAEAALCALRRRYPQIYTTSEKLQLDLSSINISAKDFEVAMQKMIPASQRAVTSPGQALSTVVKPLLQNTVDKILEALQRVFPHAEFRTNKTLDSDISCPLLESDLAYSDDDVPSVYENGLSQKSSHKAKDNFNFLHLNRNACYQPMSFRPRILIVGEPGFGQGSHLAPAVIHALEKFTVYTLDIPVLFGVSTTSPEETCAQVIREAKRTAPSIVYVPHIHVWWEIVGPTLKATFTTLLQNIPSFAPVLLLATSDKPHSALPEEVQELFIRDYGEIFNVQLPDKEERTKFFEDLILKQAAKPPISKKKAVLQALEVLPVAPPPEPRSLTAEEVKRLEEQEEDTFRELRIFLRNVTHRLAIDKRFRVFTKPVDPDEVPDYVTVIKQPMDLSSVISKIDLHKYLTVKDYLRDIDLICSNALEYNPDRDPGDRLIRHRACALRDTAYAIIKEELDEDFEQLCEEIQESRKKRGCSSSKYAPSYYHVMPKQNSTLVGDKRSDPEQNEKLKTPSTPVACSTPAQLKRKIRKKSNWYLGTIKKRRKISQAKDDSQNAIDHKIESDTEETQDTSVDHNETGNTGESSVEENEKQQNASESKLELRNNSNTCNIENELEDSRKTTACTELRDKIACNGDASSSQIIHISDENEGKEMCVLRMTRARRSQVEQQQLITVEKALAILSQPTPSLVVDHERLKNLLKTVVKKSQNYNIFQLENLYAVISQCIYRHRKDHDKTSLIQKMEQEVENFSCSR
Put plainly: Binding affinity to recombinant human ATAD2 (982 to 1108 amino acids) bromodomain […] at methyl groups of leucine, valine, isoleucine, methionine expressed in Escherichia coli BL21 (DE3) by NMR titration.

The record followed here is ChEMBL document CHEMBL3621199, “Structure-based approaches towards identification of fragments for the low-druggability ATAD2 bromodomain” (Medchemcomm, 2014).

One may read the Kd as the concentration at which binding is half-saturated. `Cc1c[nH]c(=O)[nH]c1=O` [THYMINE]: the Kd stood at 10 mM.

Turning to `Cc1cn([C@H]2CC[C@@H](CO)O2)c(=O)[nH]c1=O`, the Kd came out at 18 mM.

As to `Cc1cn([C@H]2C[C@H](O)[C@@H](CO)O2)c(=O)[nH]c1=O` [DOXRIBTIMINE], the Kd was 10 mM.

As for `Cc1cn([C@@H]2O[C@H](CN)[C@@H](O)[C@H]2O)c(=O)[nH]c1=O`, the Kd was 17 mM.

As for `Cc1cn([C@@H]2O[C@H](CO)[C@@H](O)[C@H]2O)c(=O)[nH]c1=O`, the Kd amounted to 21 mM.
